Experimental findings from article PMC5218480 (PLoS ONE, 2017) are described below.

The experiment has as its system MV-4-11 cells. Briefly: Gene expression microarray analysis (Affymetrix PrimeView) and GSEA. The settings on record: ProbeSet 11739106_a_at; LIST B. Set-up: RFU PODN (11730768_x_at) / Fold change /veh PODN (11730768_x_at) / RFU LINC00158 (11744669_a_at) / Fold change /veh LINC00158 (11744669_a_at) / RFU DUSP10 (11751237_a_at) / Fold change /veh DUSP10 (11751237_a_at) / RFU ID3 (11757404_x_at) / Fold change /veh ID3 (11757404_x_at) / RFU PLEKHG5 (11737974_s_at) / Fold change /veh PLEKHG5 (11737974_s_at) / RFU LRRC4B (11730491_at) / Fold change /veh LRRC4B (11730491_at) / RFU GIMAP4 (11747438_a_at) / Fold change /veh GIMAP4 (11747438_a_at) / RFU KRT8 (11758183_x_at) / Fold change /veh KRT8 (11758183_x_at) / RFU CNN1 (11734310_a_at) / Fold change /veh CNN1 (11734310_a_at) / RFU VPS37D (11726825_at) / Fold change /veh VPS37D (11726825_at) / RFU C10orf10 (11716522_x_at) / Fold change /veh C10orf10 (11716522_x_at) / RFU KIR2DL2 /// KIR2DL4 /// KIR2DL5A /// KIR2DL5B /// KIR2DS1 /// KIR2DS2 /// KIR2DS3 /// KIR2DS4 /// KIR3DL3 /// KIR3DL3 /// KIR3DS1 (11738374_at) / Fold change /veh KIR2DL2 /// KIR2DL4 /// KIR2DL5A /// KIR2DL5B /// KIR2DS1 /// KIR2DS2 /// KIR2DS3 /// KIR2DS4 /// KIR3DL3 /// KIR3DL3 /// KIR3DS1 (11738374_at) / RFU C1QL1 (11718748_at) / Fold change /veh C1QL1 (11718748_at) / RFU TMPRSS4 (11747572_a_at) / Fold change /veh TMPRSS4 (11747572_a_at) / RFU HAMP (11756126_x_at) / Fold change /veh HAMP (11756126_x_at) / RFU RNFT2 (11725882_a_at) / Fold change /veh RNFT2 (11725882_a_at) / RFU NR4A2 (11747474_a_at) / Fold change /veh NR4A2 (11747474_a_at) / RFU ABCC12 (11746883_a_at) / Fold change /veh ABCC12 (11746883_a_at) / RFU TMEM136 (11760407_x_at) / Fold change /veh TMEM136 (11760407_x_at) / RFU CLDN22 /// WWC2 (11732394_at) / Fold change /veh CLDN22 /// WWC2 (11732394_at) / RFU HLA-DPB1 (11760878_x_at) / Fold change /veh HLA-DPB1 (11760878_x_at) / RFU SPINT1 (11716480_a_at) / Fold change /veh SPINT1 (11716480_a_at) / RFU GAP43 (11754022_s_at) / Fold change /veh GAP43 (11754022_s_at) / RFU A4GNT (11735810_at) / Fold change /veh A4GNT (11735810_at) / RFU PRB3 (11715151_x_at) / Fold change /veh PRB3 (11715151_x_at) / RFU TUBB4B (11761932_at) / Fold change /veh TUBB4B (11761932_at) / RFU CAPN14 (11732068_a_at) / Fold change /veh CAPN14 (11732068_a_at) / RFU TMCC2 (11721928_a_at) / Fold change /veh TMCC2 (11721928_a_at) / RFU IRGQ (11745062_a_at) / Fold change /veh IRGQ (11745062_a_at) / RFU FAM174B (11720279_a_at) / Fold change /veh FAM174B (11720279_a_at) / RFU TMPRSS4 (11748680_a_at) / Fold change /veh TMPRSS4 (11748680_a_at) / RFU FAM212B (11763350_a_at) / Fold change /veh FAM212B (11763350_a_at) / RFU PLEKHG5 (11743358_a_at) / Fold change /veh PLEKHG5 (11743358_a_at) / RFU ZSCAN30 (11745921_a_at) / Fold change /veh ZSCAN30 (11745921_a_at) / RFU CMKLR1 (11741424_a_at) / Fold change /veh CMKLR1 (11741424_a_at) / RFU LOC101060620 /// MAPK8IP1 (11723275_at) / Fold change /veh LOC101060620 /// MAPK8IP1 (11723275_at) / RFU SPTSSB (11747773_x_at) / Fold change /veh SPTSSB (11747773_x_at) / RFU PRSS12 (11739890_at) / Fold change /veh PRSS12 (11739890_at) / RFU BIN1 (11741810_x_at) / Fold change /veh BIN1 (11741810_x_at) / RFU WNT11 (11732464_a_at) / Fold change /veh WNT11 (11732464_a_at) / RFU C10orf10 (11716521_a_at) / Fold change /veh C10orf10 (11716521_a_at) / RFU C5orf56 (11738089_at) / Fold change /veh C5orf56 (11738089_at) / RFU CYB561 (11721691_x_at) / Fold change /veh CYB561 (11721691_x_at) / RFU ANKRD19P (11752326_a_at) / Fold change /veh ANKRD19P (11752326_a_at) / RFU OR2T12 /// OR2T33 /// OR2T8 (11738714_s_at) / Fold change /veh OR2T12 /// OR2T33 /// OR2T8 (11738714_s_at) / RFU VCAN (11748164_a_at) / Fold change /veh VCAN (11748164_a_at) / RFU JSRP1 (11732532_at) / Fold change /veh JSRP1 (11732532_at) / RFU KRTAP10-11 (11738290_x_at) / Fold change /veh KRTAP10-11 (11738290_x_at) / RFU MYO3A (11730013_a_at) / Fold change /veh MYO3A (11730013_a_at) / RFU EBF3 (11725865_a_at) / Fold change /veh EBF3 (11725865_a_at) / RFU CAMK2N1 (11719241_x_at) / Fold change /veh CAMK2N1 (11719241_x_at) / RFU C5orf56 (11738088_a_at) / Fold change /veh C5orf56 (11738088_a_at) / RFU OLFML3 (11715873_a_at) / Fold change /veh OLFML3 (11715873_a_at) / RFU LOC100653217 /// NTM (11731650_a_at) / Fold change /veh LOC100653217 /// NTM (11731650_a_at) / RFU MAPK11 (11762145_a_at) / Fold change /veh MAPK11 (11762145_a_at) / RFU FIZ1 (11724087_x_at) / Fold change /veh FIZ1 (11724087_x_at) / RFU OASL (11726364_x_at) / Fold change /veh OASL (11726364_x_at) / RFU SOX15 (11748057_x_at) / Fold change /veh SOX15 (11748057_x_at) / RFU CD79A (11719716_a_at) / Fold change /veh CD79A (11719716_a_at) / RFU HIST1H1D (11736915_at) / Fold change /veh HIST1H1D (11736915_at) / RFU CASKIN2 (11723855_a_at) / Fold change /veh CASKIN2 (11723855_a_at) / RFU LOC730098 (11760151_x_at) / Fold change /veh LOC730098 (11760151_x_at) / RFU OR4N2 (11742367_at) / Fold change /veh OR4N2 (11742367_at) / RFU PRRT2 (11749266_a_at) / Fold change /veh PRRT2 (11749266_a_at) / RFU SNX32 (11753110_a_at) / Fold change /veh SNX32 (11753110_a_at) / RFU CDHR5 (11726645_a_at) / Fold change /veh CDHR5 (11726645_a_at) / RFU RCAN1 (11760418_a_at) / Fold change /veh RCAN1 (11760418_a_at) / RFU FAM167A (11723789_a_at) / Fold change /veh FAM167A (11723789_a_at) / RFU FAM26E (11764081_at) / Fold change /veh FAM26E (11764081_at) / RFU ISYNA1 (11749810_s_at) / Fold change /veh ISYNA1 (11749810_s_at) / RFU ACY1 (11761880_at) / Fold change /veh ACY1 (11761880_at) / RFU 11764098_at / Fold change /veh 11764098_at / RFU SAMD14 (11745864_x_at) / Fold change /veh SAMD14 (11745864_x_at) / RFU NPB (11741838_a_at) / Fold change /veh NPB (11741838_a_at) / RFU TMPRSS6 (11731388_a_at) / Fold change /veh TMPRSS6 (11731388_a_at) / RFU KRTAP10-2 (11738614_at) / Fold change /veh KRTAP10-2 (11738614_at) / RFU ARHGAP8 /// PRR5-ARHGAP8 (11727945_x_at) / Fold change /veh ARHGAP8 /// PRR5-ARHGAP8 (11727945_x_at) / RFU KRTAP5-7 /// NADSYN1 (11734609_at) / Fold change /veh KRTAP5-7 /// NADSYN1 (11734609_at) / RFU RASL12 (11751679_a_at) / Fold change /veh RASL12 (11751679_a_at) / RFU CDKN2B (11736163_a_at) / Fold change /veh CDKN2B (11736163_a_at) / RFU PRF1 (11729649_at) / Fold change /veh PRF1 (11729649_at) / RFU, ZNF638 /// ZNF638-IT1 / Fold change vs veh, ZNF638 /// ZNF638-IT1 / RFU, PANK3 / Fold change vs veh, PANK3 / RFU, SH3YL1 / Fold change vs veh, SH3YL1 / RFU, ZEB2 / Fold change vs veh, ZEB2 / RFU, NRIP1 / Fold change vs veh, NRIP1 / RFU, PTTG1IP / Fold change vs veh, PTTG1IP / RFU, CAPN2 / Fold change vs veh, CAPN2 / RFU, MED14 / Fold change vs veh, MED14 / RFU, SNORA58 / Fold change vs veh, SNORA58 / RFU, C1orf63 / Fold change vs veh, C1orf63 / RFU, LRRFIP1 / Fold change vs veh, LRRFIP1 / RFU, NDUFAF7 / Fold change vs veh, NDUFAF7 / RFU, SLC12A2 / Fold change vs veh, SLC12A2 / RFU, IBTK / Fold change vs veh, IBTK / RFU, ESF1 / Fold change vs veh, ESF1 / Fold change vs veh, TMEM50B / RFU, TAOK1 / Fold change vs veh, TAOK1 / RFU, ACBD3 / Fold change vs veh, ACBD3 / RFU, TMA16 / Fold change vs veh, TMA16 / RFU, RWDD3 / Fold change vs veh, RWDD3 / RFU, BCAT1 / Fold change vs veh, BCAT1 / RFU, EDEM3 / Fold change vs veh, EDEM3 / RFU, TMEM33 / Fold change vs veh, TMEM33 / RFU, WDR75 / Fold change vs veh, WDR75 / RFU, AHCTF1 / Fold change vs veh, AHCTF1 / RFU, TFRC / Fold change vs veh, TFRC / RFU, ZDHHC17 / Fold change vs veh, ZDHHC17 / RFU, NOM1 / Fold change vs veh, NOM1 / RFU, ARL8B / Fold change vs veh, ARL8B / RFU, ZBTB11 / Fold change vs veh, ZBTB11 / RFU, TAMM41 / Fold change vs veh, TAMM41 / RFU, KIAA1704 /// LOC100996395 / Fold change vs veh, KIAA1704 /// LOC100996395 / RFU, ING1 / Fold change vs veh, ING1 / RFU, TRMT61B / Fold change vs veh, TRMT61B / RFU, FUBP3 / Fold change vs veh, FUBP3 / RFU, TP53 / Fold change vs veh, TP53 / RFU, TNKS2 / Fold change vs veh, TNKS2 / RFU, ZFP14 / Fold change vs veh, ZFP14 / RFU, ACTR2 / Fold change vs veh, ACTR2 / RFU, PPP3R1 / Fold change vs veh, PPP3R1 / RFU, PIK3R1 / Fold change vs veh, PIK3R1 / RFU, HNRNPA1 / Fold change vs veh, HNRNPA1 / RFU, RNF170 / Fold change vs veh, RNF170 / RFU, ZNF28 / Fold change vs veh, ZNF28 / RFU, RNGTT / Fold change vs veh, RNGTT / RFU, OGT / Fold change vs veh, OGT / RFU, BRD1 / Fold change vs veh, BRD1 / RFU, MARS / Fold change vs veh, MARS / RFU, ZNF655 / Fold change vs veh, ZNF655 / RFU, FAHD1 / Fold change vs veh, FAHD1 / RFU, BDP1 / Fold change vs veh, BDP1 / RFU, LRRCC1 / Fold change vs veh, LRRCC1 / RFU, ARID1A / Fold change vs veh, ARID1A / RFU, ZNF146 / Fold change vs veh, ZNF146 / RFU, ZNF330 / Fold change vs veh, ZNF330 / RFU, GPN3 / Fold change vs veh, GPN3 / RFU, C9orf123 / Fold change vs veh, C9orf123 / RFU, N4BP2L2 / Fold change vs veh, N4BP2L2 / RFU, ARFIP1 / Fold change vs veh, ARFIP1 / RFU, FAM179B / Fold change vs veh, FAM179B / RFU, BCL10 / Fold change vs veh, BCL10 / RFU, UHRF1BP1L / Fold change vs veh, UHRF1BP1L / RFU, BET1 / Fold change vs veh, BET1 / RFU, CNOT2 / Fold change vs veh, CNOT2 / RFU, ZNF268 / Fold change vs veh, ZNF268 / Fold change vs veh, ZNF507 / RFU, DGCR2 / Fold change vs veh, DGCR2 / RFU, WDSUB1 / Fold change vs veh, WDSUB1 / Fold change vs veh, HSP90B1 /// MIR3652 / RFU, ADSS / Fold change vs veh, ADSS / RFU, GK / Fold change vs veh, GK / RFU, ZNF148 / Fold change vs veh, ZNF148 / RFU, TAF9 / Fold change vs veh, TAF9 / RFU, SLC1A5 / Fold change vs veh, SLC1A5 / RFU, SLMO2 / Fold change vs veh, SLMO2 / RFU, ABCC4 / Fold change vs veh, ABCC4 / RFU, LOC101060439 /// RAP1B / Fold change vs veh, LOC101060439 /// RAP1B / RFU, RFX7 / Fold change vs veh, RFX7 / RFU, GTPBP10 / Fold change vs veh, GTPBP10 / RFU, CNEP1R1 / Fold change vs veh, CNEP1R1 / RFU, BIVM-ERCC5 /// ERCC5 / Fold change vs veh, BIVM-ERCC5 /// ERCC5 / RFU, ILF3 / Fold change vs veh, ILF3 / RFU 11762660_at / Fold change /veh 11762660_at / RFU VCAN (11757783_s_at) / Fold change /veh VCAN (11757783_s_at) / RFU DDX43 (11728927_at) / Fold change /veh DDX43 (11728927_at) / RFU KRT8 (11758188_x_at) / Fold change /veh KRT8 (11758188_x_at) / RFU NKD1 (11759106_at) / Fold change /veh NKD1 (11759106_at) / RFU SRD5A1 (11742802_a_at) / Fold change /veh SRD5A1 (11742802_a_at) / RFU TPSAB1 /// TPSB2 (11721975_s_at) / Fold change /veh TPSAB1 /// TPSB2 (11721975_s_at) / RFU GSTM3 (11746129_a_at) / Fold change /veh GSTM3 (11746129_a_at) / RFU IL23R (11737362_x_at) / Fold change /veh IL23R (11737362_x_at) / RFU TMEM51 (11727254_a_at) / Fold change /veh TMEM51 (11727254_a_at) / RFU PIWIL2 (11732686_x_at) / Fold change /veh PIWIL2 (11732686_x_at) / RFU ORM1 (11744905_x_at) / Fold change /veh ORM1 (11744905_x_at) / RFU CCDC152 (11743942_at) / Fold change /veh CCDC152 (11743942_at) / RFU ECM1 (11717891_a_at) / Fold change /veh ECM1 (11717891_a_at) / RFU IL23R (11748794_a_at) / Fold change /veh IL23R (11748794_a_at) / RFU TNFAIP8L3 (11732012_x_at) / Fold change /veh TNFAIP8L3 (11732012_x_at) / RFU MBOAT4 (11741988_at) / Fold change /veh MBOAT4 (11741988_at) / RFU 11764193_at / Fold change /veh 11764193_at / RFU TMEM53 (11763286_at) / Fold change /veh TMEM53 (11763286_at) / RFU MAGEB2 (11727129_at) / Fold change /veh MAGEB2 (11727129_at) / RFU TMEM200A (11744735_a_at) / Fold change /veh TMEM200A (11744735_a_at) / RFU CCDC152 (11751479_a_at) / Fold change /veh CCDC152 (11751479_a_at) / RFU FAM211A (11726209_a_at) / Fold change /veh FAM211A (11726209_a_at) / RFU RGS16 (11746705_a_at) / Fold change /veh RGS16 (11746705_a_at) / RFU VCAN (11755009_s_at) / Fold change /veh VCAN (11755009_s_at) / RFU RHOB (11743442_s_at) / Fold change /veh RHOB (11743442_s_at) / RFU RGS16 (11720943_a_at) / Fold change /veh RGS16 (11720943_a_at) / RFU RGS16 (11720944_at) / Fold change /veh RGS16 (11720944_at) / RFU, VPS4B / Fold change vs veh, VPS4B / RFU, CREB1 / Fold change vs veh, CREB1 / RFU, DNAJC13 / Fold change vs veh, DNAJC13 / RFU, GNAQ / Fold change vs veh, GNAQ / RFU, CDK5R1 / Fold change vs veh, CDK5R1 / RFU, ZRANB3 / Fold change vs veh, ZRANB3 / RFU, CUL4A / Fold change vs veh, CUL4A / RFU, CCNY / Fold change vs veh, CCNY / RFU, UFL1 / Fold change vs veh, UFL1 / RFU, COG3 / Fold change vs veh, COG3 / RFU, DIAPH2 / Fold change vs veh, DIAPH2 / RFU, SKA2 / Fold change vs veh, SKA2 / RFU, AFF3 / Fold change vs veh, AFF3 / RFU, LMF1 / Fold change vs veh, LMF1 / RFU, IPO11 / Fold change vs veh, IPO11 / RFU, DFFB / Fold change vs veh, DFFB / RFU, FOXP1 / Fold change vs veh, FOXP1 / RFU, CARD8 / Fold change vs veh, CARD8 / RFU, STRN3 / Fold change vs veh, STRN3 / RFU, ADK / Fold change vs veh, ADK / RFU, RASSF2 / Fold change vs veh, RASSF2 / RFU, WIPF1 / Fold change vs veh, WIPF1 / RFU, LARP1B / Fold change vs veh, LARP1B / RFU, RASA1 / Fold change vs veh, RASA1 / RFU, RB1 / Fold change vs veh, RB1 / RFU, PPFIA1 / Fold change vs veh, PPFIA1 / RFU, MAT2A / Fold change vs veh, MAT2A / RFU, CCT5 / Fold change vs veh, CCT5 / RFU, WDR92 / Fold change vs veh, WDR92 / RFU, CUX1 / Fold change vs veh, CUX1 / RFU, TTC7A / Fold change vs veh, TTC7A / RFU, TMEM135 / Fold change vs veh, TMEM135 / RFU, DEPTOR / Fold change vs veh, DEPTOR / RFU, CPM / Fold change vs veh, CPM / RFU, DNAJB6 / Fold change vs veh, DNAJB6 / RFU, CACNA2D3 / Fold change vs veh, CACNA2D3 / RFU, DTX4 / Fold change vs veh, DTX4 / RFU, TFCP2 / Fold change vs veh, TFCP2 / RFU, GMCL1 /// GMCL1P1 / Fold change vs veh, GMCL1 /// GMCL1P1 / RFU, AEBP2 / Fold change vs veh, AEBP2 / RFU, SNHG1 /// SNORD22 /// SNORD25 /// SNORD26 /// SNORD27 /// SNORD28 /// SNORD29 /// SNORD31 / Fold change vs veh, SNHG1 /// SNORD22 /// SNORD25 /// SNORD26 /// SNORD27 /// SNORD28 /// SNORD29 /// SNORD31 / Fold change (Aza/veh), C12orf56 (ProbeSet 11735607_a_at) / Fold change (ACY-1035/veh), C12orf56 (ProbeSet 11735607_a_at) / Fold change (Aza/veh), FGFR1OP (ProbeSet 11751329_s_at) / Fold change (ACY-1035/veh), FGFR1OP (ProbeSet 11751329_s_at) / Fold change (Aza/veh), VPS36 (ProbeSet 11739960_a_at) / Fold change (ACY-1035/veh), VPS36 (ProbeSet 11739960_a_at) / RFU SYPL1 (11715823_x_at) / Fold change /veh SYPL1 (11715823_x_at) / RFU IGFBP7 (11715501_s_at) / Fold change /veh IGFBP7 (11715501_s_at) / RFU REEP3 (11722064_at) / Fold change /veh REEP3 (11722064_at) / RFU IGLL1 (11728026_x_at) / Fold change /veh IGLL1 (11728026_x_at): dose or concentration left out as unconfirmed. The class given is cell-based, human.

With `Nc1ncn([C@@H]2O[C@H](CO)[C@@H](O)[C@H]2O)c(=O)n1` [azacitidine], the “Fold change vs veh, TMEM33” value is reported as 0.88.
